Experimental data from patent US20160047819A1, “METHOD FOR DIAGNOSING VAGINAL INFECTIONS” (priority 2013, published 2016).

System: vaginal proteome (human proteins in vaginal fluid)
Experiment: MS/MS proteomic analysis of vaginal fluid pools, BV-affected women before (BV) and after rifaximin/placebo treatment: human proteins
Assay type: in vivo
Procedure: Proteomic analysis was performed on 9 pools of vaginal isolates, grouped according to the status of the BV infection: • H pool (from 41 healthy women); BV pool (from 39 BV-affected women); • A-R pool (from 2 women who were in remission after rifaximin treatment-group A); • A-N pool (from 8 women who were not in remission after rifaximin treatment-group A); • B-R pool (from 5 women who were in remission after rifaximin treatment-group B); • B-N pool (from 5 women who were not in remission after rifaximin treatment-group B); • C-R pool (from 4 women who were in remission after rifaximin treatment-group C); • C-N (from 5 women who were not in remission after rifaximin treatment-group C); • D-N (from 10 women who were not in remission after placebo treatment-group D). Scheme of the vaginal fluids collected for testing the diagnostic method is represented in FIG. 1.
In these figures are reported the peptides in the fractionated pools of healthy women, women affected by BV and peptides of women treated with rifaximin. The treatment with rifaximin was at dosage of 100 mg/day for 5 days; (remission, A-R; no remission, A-N), 25 mg/5 days (remission, B-R; no remission, B-N), 100 mg/2 days (remission, C-R; no remission, C-N), and placebo for 5 days (D-N). Two types of comparisons were carried out: (i) between fractionated pools of proteins from vaginal fluid of healthy women (HF) versus fractionated pool of proteins from vaginal fluid of women affected by bacterial vaginosis (BVF); (ii) between whole pools of proteins from vaginal fluid of women affected by BV treated by administering different doses of rifaximin or placebo before (BV) and after (A-R, A-N, B-R, B-N, C-R, C-N, D-N) treatment. Fractioned pools of proteins are obtained, e.g., by separating the proteins by separation on membrane filtration with different membrane porosity, prior to MS/MS analysis.
Nine volumes of acetone: HCl (10:1) were added to the supernatant of the vaginal rinsing and proteins were precipitated by centrifuging at 12000 g for 10 min. The protein pellet was dissolved in 1 mL of 70% ethanol and the sample was spun at 12000 g for 10 min. One mL of acetone was added and the proteins were further precipitated by centrifugation at 12000 g for 5 min. After removing supernatant, pellet was dried by SpeedVac concentrator (Thermo Savant ISS110, Thermo Fisher Scientific, Waltham, Mass.) and then stored at −20° C.
Protein extract was quantified using the 2-D Quant Kit (GE Healthcare, Uppsala, Sweden) according to the manufacturer's instructions.
Patients who were diagnosed for BV at the study visit V1 were included in a multicentre, double-blind, randomised, placebo-controlled study (EudraCT: 2009-011826-32), that was performed to compare the efficacy of different doses of rifaximin vaginal tablets versus placebo for the treatment of BV. The patients underwent a randomisation visit and were distributed into 4 treatment groups: group A received 100 mg rifaximin vaginal tablet once daily for 5 days (n=10), group B received 25 mg rifaximin vaginal tablet once daily for 5 days (n=10), group C received 100 mg rifaximin vaginal tablet once daily for the first 2 days and placebo vaginal tablet for the remaining 3 days (n=9), group D received placebo vaginal tablet once daily for 5 days (n=10). Study medication was administered intra-vaginally at bedtime. After 7 to 10 days from the end of the therapy a follow-up visit (V3) was performed. Remission was evaluated at V3 according to Amsel's criteria (<3) and Gram stain Nugent score (≦3) (Table 1).
Standardized vaginal rinsings with 2 mL of saline were collected for analysis at V1 and V3 by flushing and re-aspirating the fluid through a 22 Gauge needle in the left, central and right upper vaginal vaults. The vaginal rinsings were subsequently stored at −80° C. until use.
MS/MS analysis was carried out for H and BV pools and for the whole BV, A-R, A-N, B-R, B-N, C-R, C-N and D-N pools containing 50 μg of protein each. […]

What does the source list for `CO[C@H]1/C=C/O[C@@]2(C)Oc3c(C)c(O)c4c(O)c(c5c(nc6cc(C)ccn65)c4c3C2=O)NC(=O)/C(C)=C\C=C\[C@H](C)[C@H](O)[C@@H](C)[C@@H](O)[C@@H](C)[C@H](OC(C)=O)[C@@H]1C` [rifaximin]?
Ratio X/H Sciellin (O95171) (pool C-N after treatment): 0.0; Ratio X/H Semenogelin-2 (Q02383) (pool C-N after treatment): −1.8; Ratio X/H Serine protease 27 (Q9BQR3) (pool C-N after treatment): 0.0; Ratio X/H Serine/threonine-protein kinase ULK1 (O75385) (pool C-N after treatment): −1.7; Ratio X/H Serotransferrin (P02787) (pool C-N after treatment): −1.5; Ratio X/H Serpin B3 (P29508) (pool C-N after treatment): 1.6; Ratio X/H Serpin B4 (P48594) (pool C-N after treatment): 0.0; Ratio X/H Serpin B5 (P36952) (pool C-N after treatment): −2.6; Ratio X/H Serpin B6 (P35237) (pool C-N after treatment): 0.0; Ratio X/H Serpin B9 (P50453) (pool C-N after treatment): 0.0; Ratio X/H Serpin B12 (Q96P63) (pool C-N after treatment): 0.0; Ratio X/H Serpin B13 (Q9UIV8) (pool C-N after treatment): 0.0; Ratio X/H Serum albumin (P02768) (pool C-N after treatment): −1.6; Ratio X/H Serum paraoxonase/arylesterase 1 (P27169) (pool C-N after treatment): 1.5; Ratio X/H Small proline-rich protein 3 (Q9UBC9) (pool C-N after treatment): 1.7; Ratio X/H Stanniocalcin-1 (P52823) (pool C-N after treatment): 4.0; Ratio X/H Sulfhydryl oxidase 1 (O00391) (pool C-N after treatment): 0.0; Ratio X/H Superoxide dismutase [Cu—Zn] (P00441) (pool C-N after treatment): 0.0; Ratio X/H Suprabasin (Q6UWP8) (pool C-N after treatment): 3.9; Ratio X/H Syntenin-1 (O00560) (pool C-N after treatment): 0.0; Ratio X/H Talin-1 (Q9Y490) (pool C-N after treatment): 0.0; Ratio X/H Tctex1 domain-containing protein 2 (Q8WW35) (pool C-N after treatment): −13.6; Ratio X/H Teneurin-3 (Q9P273) (pool C-N after treatment): 10.2; Ratio X/H Thioredoxin (P10599) (pool C-N after treatment): 0.0; Ratio X/H Transaldolase (P37837) (pool C-N after treatment): −2.2; Ratio X/H Transmembrane protease serine 11D (O60235) (pool C-N after treatment): 0.0; Ratio X/H Transthyretin (P02766) (pool C-N after treatment): −1.8; Ratio X/H Tumor protein D54 (O43399) (pool C-N after treatment): 0.0; Ratio X/H UTP--glucose-1-phosphate uridylyltransferase (Q16851) (pool C-N after treatment): 0.0; Ratio X/H UV excision repair protein RAD23 homolog B (P54727) (pool C-N after treatment): −1.5; Ratio X/H Uronyl 2-sulfotransferase (Q9Y2C2) (pool C-N after treatment): −917.5; Ratio X/H Versican core protein (P13611) (pool C-N after treatment): 0.0; Ratio X/H Vinculin (P18206) (pool C-N after treatment): 0.0; Ratio X/H Vitamin D-binding protein (P02774) (pool C-N after treatment): 0.0; Ratio X/H Werner syndrome ATP-dependent helicase (Q14191) (pool C-N after treatment): 12.4; Ratio X/H Zinc finger protein 185 (O15231) (pool C-N after treatment): 1.5; Ratio X/H Zinc finger protein 335 (Q9H4Z2) (pool C-N after treatment): 0.0; Ratio X/H Zinc-alpha-2-glycoprotein (P25311) (pool C-N after treatment): 0.0; Ratio X/H Zyxin (Q15942) (pool C-N after treatment): 2.0; Ratio X/H Sciellin (O95171) (pool C-R after treatment): 0.0; Ratio X/H Semenogelin-2 (Q02383) (pool C-R after treatment): 0.0; Ratio X/H Serine protease 27 (Q9BQR3) (pool C-R after treatment): −1.5; Ratio X/H Serine/threonine-protein kinase ULK1 (O75385) (pool C-R after treatment): −7.4; Ratio X/H Serotransferrin (P02787) (pool C-R after treatment): 0.0; Ratio X/H Serpin B3 (P29508) (pool C-R after treatment): 2.6; Ratio X/H Serpin B4 (P48594) (pool C-R after treatment): 0.0; Ratio X/H Serpin B5 (P36952) (pool C-R after treatment): 2.0; Ratio X/H Serpin B6 (P35237) (pool C-R after treatment): −2.2; Ratio X/H Serpin B9 (P50453) (pool C-R after treatment): −6.6; Ratio X/H Serpin B12 (Q96P63) (pool C-R after treatment): −1.7; Ratio X/H Serpin B13 (Q9UIV8) (pool C-R after treatment): 0.0; Ratio X/H Serum albumin (P02768) (pool C-R after treatment): −2.1; Ratio X/H Serum paraoxonase/arylesterase 1 (P27169) (pool C-R after treatment): 0.0; Ratio X/H Small proline-rich protein 3 (Q9UBC9) (pool C-R after treatment): 4.4; Ratio X/H Stanniocalcin-1 (P52823) (pool C-R after treatment): 13.3; Ratio X/H Sulfhydryl oxidase 1 (O00391) (pool C-R after treatment): −1.6; Ratio X/H Superoxide dismutase [Cu—Zn] (P00441) (pool C-R after treatment): 0.0; Ratio X/H Suprabasin (Q6UWP8) (pool C-R after treatment): 14.4; Ratio X/H Syntenin-1 (O00560) (pool C-R after treatment): −2.3; Ratio X/H Talin-1 (Q9Y490) (pool C-R after treatment): 0.0; Ratio X/H Tctex1 domain-containing protein 2 (Q8WW35) (pool C-R after treatment): 0.0; Ratio X/H Teneurin-3 (Q9P273) (pool C-R after treatment): 0.0; Ratio X/H Thioredoxin (P10599) (pool C-R after treatment): 0.0; Ratio X/H Transaldolase (P37837) (pool C-R after treatment): 2.4; Ratio X/H Transmembrane protease serine 11D (O60235) (pool C-R after treatment): 0.0; Ratio X/H Transthyretin (P02766) (pool C-R after treatment): 0.0; Ratio X/H Tumor protein D54 (O43399) (pool C-R after treatment): 0.0; Ratio X/H UTP--glucose-1-phosphate uridylyltransferase (Q16851) (pool C-R after treatment): 0.0; Ratio X/H UV excision repair protein RAD23 homolog B (P54727) (pool C-R after treatment): −2.2; Ratio X/H Uronyl 2-sulfotransferase (Q9Y2C2) (pool C-R after treatment): −7.7; Ratio X/H Versican core protein (P13611) (pool C-R after treatment): 0.0; Ratio X/H Vinculin (P18206) (pool C-R after treatment): 0.0; Ratio X/H Vitamin D-binding protein (P02774) (pool C-R after treatment): 0.0; Ratio X/H Werner syndrome ATP-dependent helicase (Q14191) (pool C-R after treatment): 209.6; Ratio X/H Zinc finger protein 185 (O15231) (pool C-R after treatment): 1.8; Ratio X/H Zinc finger protein 335 (Q9H4Z2) (pool C-R after treatment): 0.0; Ratio X/H Zinc-alpha-2-glycoprotein (P25311) (pool C-R after treatment): 0.0; Ratio X/H Zyxin (Q15942) (pool C-R after treatment): 0.0
